For one compound, GI50 results are on record in ChEMBL document CHEMBL1201862, “PubChem BioAssay data set” (2004).

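Results reflect a 48-hour exposure of cells in 96-well plates to compound at five concentrations. The concentration for 50% growth inhibition is given as GI50.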 Activity calls are given as the source filed them. No stated cut-off is given here; in the data, active = GI50 up to about 1.1 µM and inactive = higher. A value given as a limit tells only on which side of the number the result lay.

Test systems include SNB-75; A549; HCT-116; ACHN; MDA-MB-231; SN12C; U-251; NCI/ADR-RES; HCT-15; HOP-62; CAKI-1; LOX IMVI; OVCAR-3; UO-31; CCRF-CEM; OVCAR-4; NCI-H460; HCC 2998; SK-OV-3; RPMI-8226.
Assay in all cases: NCI anticancer screen, dose series, 48 h

Regarding `COP(C)(=O)/C(Cc1ccccc1)=N\O` (stereo not given), the GI50 with SNB-75, in the experiment with A549, with HCT-116, with ACHN, in the experiment on MDA-MB-231 and in the experiment with SN12C was > 100 µM (inactive) throughout. For the same compound, the GI50 in the experiment on U-251 is > 100 µM (inactive); with NCI/ADR-RES, > 100 µM (inactive); in the experiment on HCT-15, > 100 µM; with HOP-62, > 100 µM (inactive); in the experiment on CAKI-1, > 100 µM (inactive); with LOX IMVI it was > 100 µM (inactive). For the same compound, the GI50 in the experiment on OVCAR-3, with UO-31, in the experiment with CCRF-CEM, with OVCAR-4, with NCI-H460 and with HCC 2998 was > 100 µM (inactive) in each case. For the same compound, the GI50 in the experiment on SK-OV-3 and in the experiment on RPMI-8226 was > 100 µM (inactive) in each case.
